Experimental data: patent publication US4791215A, “Derivatives of glutamic acid and aspartic acid” (priority 1984, dated 1988)
Where two headings read alike, the source gives them in different places.

Key:
morphine analgesia = experiment: Increase in analgesia of morphine, Tail Flick Test (Experiment 1); format: in vivo, rats
Summary of the method: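 Tail-flick latency to 75 °C radiant heat, capped at 8 s, measured in male non-fasted rats weighing 150-200 g. Percentage change per animal derived from pre-treatment baseline versus post-drug readings at 10-90 min (10, 20, 30, 45, 60, 90 min).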

[1] = system: pancreatic adenocarcinoma; format: in vivo, hamsters
Excerpt: (§1) The anti-cholecystokinin effect of the most powerful of the compounds which are the subject of the present invention, that is the compound C-7, on the trophic activity of CCK on normal pancreatic cells and on those of a pancreatic adenocarcinoma is to be studied.
(§2) Male hamsters were inoculated in the cheek pouches with a suspension of 1×10^5 tumoral cells of a pancreatic adenocarcinoma. Five days after the inoculation the animals were divided at random into 4 groups of 10 animals each, that is, a control group, a group of animals treated with 10 μg/kg of CCK-8 three times a day, a group of animals treated with 5 mg/kg i.p. of compound C-7 three times a day, and a fourth group treated simultaneously with the compound C-7 and CCK-8 in the manner described above.
(§3) After 15 days of this treatment, the animals were killed, and the normal pancreas and the inoculated pancreatic tumours in the cheek pouches were collected and weighed. The DNA was extracted and measured according to conventional techniques.
(§4) The results thus obtained are given in Table 13, expressed as mean values (±S.E.)

normal pancreatic cells = experiment: Trophic action of CCK-8 on normal pancreas; format: in vivo, hamsters
Excerpt: as §1, §2, §3, §4

[2] = system: CCK-8 induced contraction of rabbit colon; experiment: Anti-spastic activity in the colon stimulated by CCK-8; format: in vivo
Experimental: A much more specific anti-spastic activity, that is adhering much more to a physiological situation, is illustrated by the following experiment.
The abdomen of an anaesthetised rabbit was cut open to show the transverse colon. A small balloon full of water was inserted at the point established and connected to a pressure transducer by means of a polythene cannula filled with water.
The optimum sensitivity was fixed in relation to the physiological conditions and the products were administered through the femoral vein. Contractions were induced by the administration of 100 ng/kg of CCK.

[3] = Body weight on daily oral dosing; format: in vivo, rats
Experimental: (§5) In order to check the hypothesis that the anti-CCK activity shown by most of the compounds in question may be used to advantage in the treatment of anorexia in man or as an appetite stimulant for farm animals, the following experiment was carried out:
(§6) Male rats having a weight of about 160 g, divided into groups of 10 animals, were used. […]
(§7) The drug, in the form of the sodium salt, was dissolved in water and administered in a volume of 10 ml of H2 O/kg while the control group received an equal volume of the solvent alone.
(§8) The following tables give the average values of the food consumption and the average weight of each group of animals, calculated weekly as well as the Student's t value calculated from the various treated groups and the group of control animals.

[4] = Food consumption on daily oral dosing; format: in vivo, rats
Experimental: as §5, §6, §7, §8

[5] = 10 mcg/kg CCK-8 + compound 5 mg/kg, 3 times a day
[6] = compound 5 mg/kg i.p. 3 times per day

## CCCCCN(CCCCC)C(=O)C(CCC(=O)O)NC(=O)c1ccc(Cl)c(Cl)c1 (stereo not shown) [Compound C-7]
Morphine analgesia; 10', compound 10 mg/kg i.p. + morphine 2 mg/kg
  percentage variation of latency of pain sensation: 67.9 ± 14.3%
Morphine analgesia; 20', compound 10 mg/kg i.p. + morphine 2 mg/kg
  percentage variation of latency of pain sensation: 71.5 ± 17.6%
Morphine analgesia; 30', compound 10 mg/kg i.p. + morphine 2 mg/kg
  percentage variation of latency of pain sensation: 79.4%
Morphine analgesia; 45', compound 10 mg/kg i.p. + morphine 2 mg/kg
  percentage variation of latency of pain sensation: 84.6 ± 10.5%
Morphine analgesia; 60', compound 10 mg/kg i.p. + morphine 2 mg/kg
  percentage variation of latency of pain sensation: 92.9 ± 4.1%
Morphine analgesia; 90', compound 10 mg/kg i.p. + morphine 2 mg/kg
  percentage variation of latency of pain sensation: 72.6 ± 7.0%
Morphine analgesia; mean 10-90 min, compound 10 mg/kg i.p. + morphine 2 mg/kg
  M (10-90) ± SE, mean percentage variation of latency: 78.2 ± 9.4%
Morphine analgesia; rat, in vivo
  Power ratio with respect to morphine alone: 2.62
[1]; [5]
  TUMORAL DNA: 0.4 ± 0.02 mg
  Weight of Pancreatic Carcinoma: 109.5 ± 6.2 mg
[1]; [6]
  TUMORAL DNA: 0.42 ± 0.02 mg
  Weight of Pancreatic Carcinoma: 104 ± 7.5 mg
[1]; hamster, in vivo
  effect on growth of pancreatic adenocarcinoma / CCK-8 actions: antagonises both these actions of CCK-8 in a higly significant manner
Normal pancreatic cells; [5]
  Pancreas weight: 374 ± 25.4 mg
  Pancreatic DNA: 1.0 ± 0.08 mg
Normal pancreatic cells; [6]
  Pancreas weight: 336 ± 22.6 mg
  Pancreatic DNA: 0.93 ± 0.09 mg
[2]; 3 mg/kg iv, single experiments
  effect on CCK-8 stimulated colon: -100.0
[2]; Oryctolagus cuniculus, iv, CCK 100 ng/kg
  ED50: 1.11 mg/kg
[3]; 0.3 mg/kg os, time 0
  body weight: 162.1 ± 2.48 g
[3]; 0.3 mg/kg os, week 1
  body weight: 201.3 ± 2.7 g
[3]; 0.3 mg/kg os, week 2
  body weight: 254.5 ± 2.66 g
[3]; 0.3 mg/kg os, week 3
  body weight: 315.2 ± 2.72 g
[3]; 1 mg/kg os, time 0
  body weight: 166.0 ± 1.56 g
[3]; 1 mg/kg os, week 1
  body weight: 214.7 ± 1.93 g
[3]; 1 mg/kg os, week 2
  body weight: 267.5 ± 2.6 g
[3]; 1 mg/kg os, week 3
  body weight: 319.8 ± 2.49 g
[3]; 3 mg/kg os, time 0
  body weight: 166.6 ± 1.73 g
[3]; 3 mg/kg os, week 1
  body weight: 227.9 ± 1.65 g
[3]; 3 mg/kg os, week 2
  body weight: 290.9 ± 2.6 g
[3]; 3 mg/kg os, week 3
  body weight: 349.5 ± 2.82 g
[3]; 0.3, 1 and 3 mg/kg os
  weight increase versus control animals: significantly greater weight increase than the control animals
[4]; 0.3 mg/kg daily
  increase in food consumption compared with controls: about 15%
[4]; 0.3 mg/kg os, week 1
  food consumption: 176.4 ± 3.70 g/week
[4]; 0.3 mg/kg os, week 2
  food consumption: 216.8 ± 4.71 g/week
[4]; 0.3 mg/kg os, week 3
  food consumption: 239.3 ± 4.07 g/week
[4]; 1 mg/kg os, week 1
  food consumption: 199.6 ± 3.88 g/week
[4]; 1 mg/kg os, week 2
  food consumption: 230.5 ± 3.09 g/week
[4]; 1 mg/kg os, week 3
  food consumption: 261.4 ± 4.24 g/week
[4]; 3 mg/kg os, week 1
  food consumption: 198.4 ± 3.66 g/week
[4]; 3 mg/kg os, week 2
  food consumption: 244.8 ± 3.09 g/week
[4]; 3 mg/kg os, week 3
  food consumption: 268.8 ± 4.86 g/week
[4]; other doses tested (1, 3 mg/kg daily)
  increase in food consumption compared with controls: about 30%
